Laboratory results published in PubChem BioAssay (NCI).
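Values below derive from 48-hour exposures of cells grown in 96-well plates, with endpoints linearly interpolated between the two concentrations bracketing the appropriate inhibition level. GI50: concentration for 50% inhibition of growth. TGI is the concentration that stops growth completely.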

Tests used:
Assay in all cases: NCI anticancer screen, dose series, 48 h
MDA-MB-231 breast = system: MDA-MB-231 breast
A498 renal = system: A498 renal
MDA-MB-435 = system: MDA-MB-435
RXF 393 renal = system: RXF 393 renal
ACHN renal = system: ACHN renal
DU-145 prostate = system: DU-145 prostate
BT-549 breast = system: BT-549 breast
HOP-62 NSCLC = system: HOP-62 NSCLC
SK-OV-3 ovarian = system: SK-OV-3 ovarian
DMS 273 small cell lung = system: DMS 273 small cell lung
MCF7 breast = system: MCF7 breast

| SMILES | TGI (MDA-MB-231 breast) | TGI (A498 renal) | TGI (MDA-MB-435) | TGI (RXF 393 renal) | TGI (ACHN renal) | TGI (DU-145 prostate) | TGI (BT-549 breast) | TGI (HOP-62 NSCLC) | GI50 (MDA-MB-231 breast) | GI50 (A498 renal) | GI50 (MDA-MB-435) | GI50 (RXF 393 renal) | GI50 (ACHN renal) | GI50 (DU-145 prostate) | GI50 (SK-OV-3 ovarian) | TGI (SK-OV-3 ovarian) | GI50 (BT-549 breast) | GI50 (HOP-62 NSCLC) | TGI (DMS 273 small cell lung) | TGI (MCF7 breast) |
| --- | --- | --- | --- | --- | --- | --- | --- | --- | --- | --- | --- | --- | --- | --- | --- | --- | --- | --- | --- | --- |
| CC(CO)(CO)Nc1ncnc2ccccc12 | > 100 µM | > 100 µM | > 100 µM | > 100 µM | > 100 µM | > 100 µM | > 100 µM | > 100 µM |  |  |  |  |  |  |  |  |  |  |  |  |
| Fc1ccc(-c2nnc3sc(COc4ccccc4Cl)nn23)cc1Cl | > 100 µM | 93.6 µM | > 100 µM | 69.2 µM | > 100 µM | > 100 µM | 64.4 µM | > 100 µM | 44.5 µM | 34.6 µM | 49.5 µM | 38.1 µM | 32.7 µM | 29.8 µM | 93.3 µM | > 100 µM | 22.9 µM | 49.5 µM |  |  |
| Nc1nnc(N)n1NC(=O)C(=O)Nc1ccc([N+](=O)[O-])cc1 |  | > 100 µM |  | > 100 µM | > 100 µM |  |  | > 100 µM |  |  |  |  |  |  |  | > 100 µM |  |  | > 100 µM |  |
| Cn1c(Sc2ccc(-c3cccnc3)n2C)ccc1-c1cccnc1 | 37.1 µM | 47.6 µM | 29.1 µM | 36.3 µM | 44.9 µM | 33.5 µM | 49.8 µM | 36 µM |  |  |  |  |  |  |  | 60.9 µM |  |  |  | 45.3 µM |
| COc1cc2c(cc1Oc1ccc(OC)c3c1CC1c4c(cc(OC)c(OC)c4-3)CCN1C)CC1c3c(cc(OC)c(OC)c3-2)CCN1C (stereo not given) |  | 12.6 µM |  | 3.81 µM |  |  |  | 32.5 µM |  |  |  |  |  |  |  | 31.9 µM |  |  | 7.06 µM | 8.43 µM |
| COc1ccc(CC2c3cc(OC)c(OC)c(OC)c3CC[N+]2(C)C)cc1Oc1ccc(CC2c3cc4c(c(OC)c3CCN2C)OCO4)cc1 (stereo not given) | > 100 µM | > 100 µM | > 100 µM | > 100 µM | > 100 µM | > 100 µM | > 100 µM |  |  |  |  |  |  |  |  | > 100 µM |  |  |  | > 100 µM |
| C[n+]1ccc(-c2cc[n+](C)cc2)cc1 |  | > 50.3 µM |  | 3.93 µM | > 100 µM |  |  | 66.5 µM |  |  |  |  |  |  |  | > 100 µM |  |  | > 38.5 µM |  |
| COc1cc(C)c2c(=O)c3c(oc2c1)C(=O)c1c(O)c(OC)cc(O)c1C3=O |  | 5.54 µM |  | 2.71 µM |  |  |  | 3.98 µM |  |  |  |  |  |  |  | 3.98 µM |  |  | 1.8 µM | 9.34 µM |
| O=C(O)C1=NNC(C(=O)O)=NN1 |  |  |  | > 100 µM | > 100 µM |  |  |  |  |  |  |  |  |  |  | > 100 µM |  |  | > 100 µM |  |
| COc1cc(O)c2c(c1)C(=O)c1cc(C)cc(O)c1C2=O |  | > 100 µM |  |  | > 100 µM |  |  | > 100 µM |  |  |  |  |  |  |  | > 100 µM |  |  |  |  |
| CC(C)=CCC[C@](C)(O[C@@H]1O[C@H](CO)[C@@H](O)[C@H](O)[C@H]1O)[C@H]1CC[C@]2(C)[C@@H]1[C@H](O)C[C@@H]1[C@@]3(C)CC[C@H](O)C(C)(C)[C@@H]3[C@@H](O[C@@H]3O[C@H](CO)[C@@H](O)[C@H](O)[C@H]3O)C[C@]12C | > 100 µM | > 100 µM | > 100 µM | > 100 µM | > 100 µM | > 100 µM | > 100 µM | > 100 µM |  |  |  |  |  |  |  | > 100 µM |  |  |  | > 100 µM |
| NC(=O)Nc1cc(O)ccc1N=Nc1ccc(S(=O)(=O)Nc2ccccn2)cc1 |  | > 100 µM |  |  | > 100 µM |  |  | > 100 µM |  |  |  |  |  |  |  | > 100 µM |  |  | > 100 µM |  |
| CCCCCCCCCCCCCCCCOCC(COP(=O)([O-])OCC[n+]1ccc(N(C)C)cc1)OCC (stereo not given) | 22.5 µM |  | 31.6 µM | 31.7 µM | 30.9 µM | 30.1 µM | 20.2 µM | 26.3 µM |  |  |  |  |  |  |  |  |  |  |  | 36.1 µM |
